In brackets after ≈: the same amount, converted by molar mass.

One series deals with T1, mTOR (Homo sapiens, UniProt P42345).
T1 construct: purchased Invitrogen Corporation (Carlsbad/CA, USA) PV4753
Kind of series: Biochemical assay for m-TOR by TR-FRET. To be noted: 8 μM ATP, 400 nM GFP-4EBP1, 0.5 nM mTOR. A digest of the protocol: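 TR-FRET detection of pThr46 on GFP-4EBP1 (400 nM final) using Tb3+-labelled antibody (0.5 nM), added with EDTA to stop reactions. Reactions ran at rt with 0.5 nM mTOR and 8 μM ATP (final) in HEPES pH 7.5 buffer containing 10 mM MnCl2.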
In general terms: In TR-FRET formats the signal depends on donor and acceptor labels being close together.

For a further series, the target named is T2, PI3K delta (Homo sapiens, UniProt O00329).
T2 construct: for the full-length p110-d subunit are generated and fused by overlapping PCR; p85(iSH2) fusion partner (see partner chain) (N); His tag (C); made in house; host or cells: baculovirus; Tn5 (Trichoplusia ni) or TiniPro insect cells
T2 sequence (O00329 with tags, fused parts or gaps limits assumed): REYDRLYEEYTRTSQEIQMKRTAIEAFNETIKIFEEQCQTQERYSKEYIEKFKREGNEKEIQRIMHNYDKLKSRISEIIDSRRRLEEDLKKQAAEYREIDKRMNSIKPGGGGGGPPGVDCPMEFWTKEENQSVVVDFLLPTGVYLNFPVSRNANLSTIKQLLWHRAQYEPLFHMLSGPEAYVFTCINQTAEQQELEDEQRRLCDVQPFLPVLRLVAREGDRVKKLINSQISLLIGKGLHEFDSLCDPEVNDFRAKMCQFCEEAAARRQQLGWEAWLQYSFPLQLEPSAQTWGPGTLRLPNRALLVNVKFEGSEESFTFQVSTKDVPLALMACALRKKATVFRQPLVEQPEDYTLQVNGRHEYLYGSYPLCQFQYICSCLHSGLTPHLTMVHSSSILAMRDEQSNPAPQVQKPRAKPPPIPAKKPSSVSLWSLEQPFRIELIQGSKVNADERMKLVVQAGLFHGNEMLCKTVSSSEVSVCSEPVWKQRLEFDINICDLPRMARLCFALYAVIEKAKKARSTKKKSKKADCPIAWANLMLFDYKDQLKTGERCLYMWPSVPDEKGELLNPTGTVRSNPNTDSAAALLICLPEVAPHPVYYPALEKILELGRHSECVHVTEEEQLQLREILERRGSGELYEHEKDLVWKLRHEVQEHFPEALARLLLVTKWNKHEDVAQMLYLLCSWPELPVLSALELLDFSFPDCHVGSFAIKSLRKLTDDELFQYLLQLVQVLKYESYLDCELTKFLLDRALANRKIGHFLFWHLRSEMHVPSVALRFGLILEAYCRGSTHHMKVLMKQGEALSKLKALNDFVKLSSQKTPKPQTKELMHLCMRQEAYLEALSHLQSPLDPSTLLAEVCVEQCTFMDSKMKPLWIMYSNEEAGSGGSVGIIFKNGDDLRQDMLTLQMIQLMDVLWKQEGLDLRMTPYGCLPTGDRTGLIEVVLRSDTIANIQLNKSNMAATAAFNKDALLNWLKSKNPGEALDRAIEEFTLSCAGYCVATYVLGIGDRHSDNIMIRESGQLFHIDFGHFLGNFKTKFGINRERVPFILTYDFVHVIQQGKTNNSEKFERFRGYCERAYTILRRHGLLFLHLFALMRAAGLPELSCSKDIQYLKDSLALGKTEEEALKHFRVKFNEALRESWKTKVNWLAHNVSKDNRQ
As to the kind of experiment: PI3K delta kinase assay (Kinase-Glo luminescence). It is filed as biochemical. A digest of the protocol: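 Lipid kinase activity of a His-tagged p110δ full-length/p85 iSH2 fusion (10 nM) toward bovine liver phosphatidylinositol (10 μg/mL) at 1 μM ATP, pH 7.5, 60 min, room temperature. ATP consumption is quantified by luciferase-based luminescence. Four-parameter logistic fitting gives IC50.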
A general note: Kinase-Glo measures the ATP left after a reaction by luminescence.

The nature of the next series: Solubility at pH 6.8. The format is physicochemical. Conditions: pH 6.8, aqueous buffer, thermodynamic from solid; read-out: solubility. Summed up: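 Following the procedure of Zhou et al. (2007), compound solubility was determined at pH 6.8.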
Series [1] deals with S6 Ribosomal Protein phosphorylation Ser235/236 in TSC1 null mouse embryo fibroblast (MEF) cells. As to the kind of experiment: Reverse protein array assay, S6 Ribosomal Protein phosphorylation Ser235/236 in TSC1 null MEF cells. It is filed as cell-based. To be noted: 1 h, pS6 ribosomal protein Ser235/236, 60 minutes incubation, read-out: p-S6 IC50. A digest of the protocol: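 TSC1−/− MEFs, seeded and held ≥20 h at 37 °C/5% CO2, were exposed to 8-step serial compound dilutions (0.02% DMSO final; DMSO vehicle control) for 60 min at 37 °C. Cells were then lysed on ice for 10 min and lysates spotted onto reverse protein array chips.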

T1 sequence (P42345 1360-2549 limits assumed): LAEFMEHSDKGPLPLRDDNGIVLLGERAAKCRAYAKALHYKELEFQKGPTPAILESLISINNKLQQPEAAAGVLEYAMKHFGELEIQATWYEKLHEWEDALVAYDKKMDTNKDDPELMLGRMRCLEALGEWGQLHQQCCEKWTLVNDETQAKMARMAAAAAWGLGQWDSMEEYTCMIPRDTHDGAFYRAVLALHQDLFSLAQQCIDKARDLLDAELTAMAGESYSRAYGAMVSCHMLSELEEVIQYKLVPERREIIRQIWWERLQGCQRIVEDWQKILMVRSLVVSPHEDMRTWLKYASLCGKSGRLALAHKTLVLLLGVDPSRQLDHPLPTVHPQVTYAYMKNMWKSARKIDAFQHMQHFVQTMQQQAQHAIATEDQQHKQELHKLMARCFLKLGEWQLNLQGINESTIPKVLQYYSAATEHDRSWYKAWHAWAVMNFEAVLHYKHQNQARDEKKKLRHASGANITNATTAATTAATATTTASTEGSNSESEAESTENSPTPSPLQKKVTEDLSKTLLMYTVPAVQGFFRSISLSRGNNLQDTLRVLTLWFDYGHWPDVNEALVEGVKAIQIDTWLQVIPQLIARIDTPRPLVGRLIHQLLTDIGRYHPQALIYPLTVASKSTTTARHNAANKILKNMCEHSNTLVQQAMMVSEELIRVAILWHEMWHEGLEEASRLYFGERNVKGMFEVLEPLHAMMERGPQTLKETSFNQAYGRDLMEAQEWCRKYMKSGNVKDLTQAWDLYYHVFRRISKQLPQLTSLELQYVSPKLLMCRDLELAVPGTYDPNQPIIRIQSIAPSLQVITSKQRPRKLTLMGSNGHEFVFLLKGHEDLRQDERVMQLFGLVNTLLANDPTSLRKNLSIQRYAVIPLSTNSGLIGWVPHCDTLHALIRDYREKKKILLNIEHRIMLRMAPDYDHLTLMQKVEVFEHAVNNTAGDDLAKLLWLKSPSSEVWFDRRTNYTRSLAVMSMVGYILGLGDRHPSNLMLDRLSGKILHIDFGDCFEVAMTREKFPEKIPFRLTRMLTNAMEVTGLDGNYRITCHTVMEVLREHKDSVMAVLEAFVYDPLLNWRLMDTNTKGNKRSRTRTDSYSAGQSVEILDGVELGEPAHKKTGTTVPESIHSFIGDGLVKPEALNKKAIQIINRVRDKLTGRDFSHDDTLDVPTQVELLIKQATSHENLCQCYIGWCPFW

A word on the IC50: it is the midpoint of a concentration-inhibition curve. The term solubility denotes how much of the substance goes into solution per volume. Turning to `CCNc1cc(-c2ccc3ncc4c(c3c2)n(-c2c(C)nn(CCOC)c2C)c(=O)n4C)cnc1C` [Example 87.4, 8-(5-Ethylamino-6-methyl-pyridin-3-yl)-1-[1-(2-methoxy-ethyl)-3,5-dimethyl-1H-pyrazol-4-yl]-3-methyl-1,3-dihydro-imidazo[4,5-c]quinolin-2-one], the half-maximal inhibitory concentration (IC50) at mTOR is 77 nM; on PI3K delta, 17 nM; in series [1] it was 41 nM. Moreover, the solubility in “Solubility at pH 6.8” was over 486 µg/mL.
For `C=CCn1c(=O)n(-c2cn(C)nc2C)c2c3cc(-c4cncc(N)c4)ccc3ncc21` [Example 246, 3-Allyl-8-(5-amino-pyridin-3-yl)-1-(1,3-dimethyl-1H-pyrazol-4-yl)-1,3-dihydro-imidazo[4,5-c]quinolin-2-one], the values for the IC50 (at mTOR; on PI3K delta; in series [1]) were 147 nM, 10 nM and 41 nM, respectively. Besides, the solubility in “Solubility at pH 6.8” stood at 75 µg/mL (≈ 182 µM).
Turning to `COc1ccc(-c2ccc3ncc4c(c3c2)n(-c2ccnn2C)c(=O)n4C)cn1` [Example 2.2, 8-(6-Methoxy-pyridin-3-yl)-3-methyl-1-(2-methyl-2H-pyrazol-3-yl)-1,3-dihydro-imidazo[4,5-c]quinolin-2-one], the results for the IC50 on mTOR and at PI3K delta were 347 nM and 56 nM, respectively. Besides, in “Solubility at pH 6.8”, the solubility worked out at 4 µg/mL (≈ 10.4 µM).
With `Cc1nn(C)cc1-n1c(=O)n(C)c2cnc3ccc(-c4cncc(C(C)O)c4)cc3c21` (racemic) [Example 217, (rac)-1-(1,3-Dimethyl-1H-pyrazol-4-yl)-8-[5-(1-hydroxy-ethyl)-pyridin-3-yl]-3-methyl-1,3-dihydro-imidazo[4,5-c]quinolin-2-one], the half-inhibitory concentration (IC50) on mTOR worked out at 12 nM; on PI3K delta, 19 nM; in series [1], 10 nM. Besides, the solubility in “Solubility at pH 6.8” amounted to 414 µg/mL (≈ 999 µM).
As to `Cc1nn(C)cc1-n1c(=O)n(C)c2cnc3ccc(-c4cnc(CO)c(Cl)c4)cc3c21` [Example 238, 8-(5-Chloro-6-hydroxymethyl-pyridin-3-yl)-1-(1,3-dimethyl-1H-pyrazol-4-yl)-3-methyl-1,3-dihydro-imidazo[4,5-c]quinolin-2-one], the results for the IC50 (at mTOR; at PI3K delta; in series [1]) were 174 nM, 473 nM and 6 nM, respectively. Besides, the solubility in “Solubility at pH 6.8” stood at 8 µg/mL (≈ 18.4 µM).
Turning to `Cc1ncc(-c2ccc3ncc4c(c3c2)n(-c2cn(C)nc2C)c(=O)n4C)cc1N(C)S(C)(=O)=O` [Example 75, N-{5-[1-(1,3-Dimethyl-1H-pyrazol-4-yl)-3-methyl-2-oxo-2,3-dihydro-1H-imidazo[4,5-c]quinolin-8-yl]-2-methyl-pyridin-3-yl}-N-methyl-methanesulfonamide], the 50% inhibitory concentration (IC50) on mTOR is 260 nM; at PI3K delta, 7 nM. In the series “Solubility at pH 6.8”, the solubility stood at 35 µg/mL (≈ 71.2 µM).
`CCNc1cc(-c2ccc3ncc4c(c3c2)n(-c2cn(C)nc2C)c(=O)n4C)cnc1C` [Example 87.1, 1-(1,3-Dimethyl-1H-pyrazol-4-yl)-8-(5-ethylamino-6-methyl-pyridin-3-yl)-3-methyl-1,3-dihydro-imidazo[4,5-c]quinolin-2-one]: the IC50 at mTOR was 3 nM; on PI3K delta it was 10 nM. Further, in “Solubility at pH 6.8”, the solubility worked out at 410 µg/mL (≈ 959 µM).
On to `CCn1cc(-n2c(=O)n(C)c3cnc4ccc(-c5cncc(NC)c5)cc4c32)c(C)n1` [Example 180.1, 1-(1-Ethyl-3-methyl-1H-pyrazol-4-yl)-3-methyl-8-(5-methylamino-pyridin-3-yl)-1,3-dihydro-imidazo[4,5-c]quinolin-2-one], for which the IC50 is 5 nM on mTOR and 20 nM on PI3K delta. The solubility in the series “Solubility at pH 6.8” worked out at 11 µg/mL (≈ 26.6 µM).
As for `Cc1nn(C(C)C)cc1-n1c(=O)n(C)c2cnc3ccc(-c4cncc(C(O)(CF)CF)c4)cc3c21` [Example 219, 8-[5-(2-Fluoro-1-fluoromethyl-1-hydroxy-ethyl)-pyridin-3-yl]-1-(1-isopropyl-3-methyl-1H-pyrazol-4-yl)-3-methyl-1,3-dihydro-imidazo[4,5-c]quinolin-2-one], the IC50 came to 139 nM at mTOR, 13 nM at PI3K delta and 6 nM in series [1].
As for `CCn1cc(-n2c(=O)n(C)c3cnc4ccc(-c5cncc(C6(C#N)CCC6)c5)cc4c32)c(C)n1` [Example 221.2, 1-{5-[1-(1-Ethyl-3-methyl-1H-pyrazol-4-yl)-3-methyl-2-oxo-2,3-dihydro-1H-imidazo[4,5-c]quinolin-8-yl]-pyridin-3-yl}-cyclobutanecarbonitrile], the half-inhibitory concentration (IC50) on mTOR came to 56 nM; at PI3K delta, 6 nM; in series [1], 1 nM.
In the case of `CNc1cc(-c2ccc3ncc4c(c3c2)n(-c2c(C)nn(C)c2C)c(=O)n4C)cnc1CO` [Example 158.4, 8-(6-Hydroxymethyl-5-methylamino-pyridin-3-yl)-3-methyl-1-(1,3,5-trimethyl-1H-pyrazol-4-yl)-1,3-dihydro-imidazo[4,5-c]quinolin-2-one], the concentration for half-maximal inhibition (IC50) on mTOR was found to be 70 nM; at PI3K delta, 11 nM; in series [1], 150 nM.
The corresponding values for `Cc1cc(-n2c(=O)n(C)c3cnc4ccc(-c5cncc(N6CCOCC6)c5)cc4c32)n(C)n1` [Example 175.2, 1-(2,5-Dimethyl-2H-pyrazol-3-yl)-3-methyl-8-(5-morpholin-4-yl-pyridin-3-yl)-1,3-dihydro-imidazo[4,5-c]quinolin-2-one] are 155 nM, 235 nM and 32 nM.
For the molecule `Cc1nn(CC(=O)N(C)C)c(C)c1-n1c(=O)n(C)c2cnc3ccc(-c4cnc(N)c(C(F)(F)F)c4)cc3c21` [Example 25.2, 2-{4-[8-(6-Amino-5-trifluoromethyl-pyridin-3-yl)-3-methyl-2-oxo-2,3-dihydro-imidazo[4,5-c]quinolin-1-yl]-3,5-dimethyl-pyrazol-1-yl}-N,N-dimethyl-acetamide], the IC50 on mTOR was 152 nM; at PI3K delta, 32 nM; in series [1] it was 6 nM.
As to `Cc1nn(C)cc1-n1c(=O)n(C)c2cnc3ccc(-c4cnc5[nH]ccc5c4)cc3c21` [Example 36, 1-(1,3-dimethyl-1H-pyrazol-4-yl)-3-methyl-8-(1H-pyrrolo[2,3-b]pyridin-5-yl)-1,3-dihydro-imidazo[4,5-c]quinolin-2-one], the results for the IC50 (on mTOR; at PI3K delta; in series [1]) were under 3 nM, 24 nM and under 0.5 nM, respectively.
Turning to `Cc1nn(C)cc1-n1c(=O)n(C)c2cnc3ccc(-c4cc(O)cc(C(F)(F)F)c4)cc3c21` [Example 34, 1-(1,3-Dimethyl-1H-pyrazol-4-yl)-8-(3-hydroxy-5-trifluoromethyl-phenyl)-3-methyl-1,3-dihydro-imidazo[4,5-c]quinolin-2-one], the IC50 worked out at 133 nM at mTOR, 7 nM on PI3K delta and 3.56 nM in series [1].
In the case of `CCOc1cccc(-c2ccc3ncc4c(c3c2)n(-c2cn(C)nc2C)c(=O)n4C)c1` [Example 57, 1-(1,3-Dimethyl-1H-pyrazol-4-yl)-8-(3-ethoxy-phenyl)-3-methyl-1,3-dihydro-imidazo[4,5-c]quinolin-2-one], the IC50 at mTOR came out at 322 nM; at PI3K delta it was 215 nM; in series [1] it was 5 nM.
In the case of `COc1ncc(-c2ccc3ncc4c(c3c2)n(-c2cn(C)nc2C)c(=O)n4C)cc1N(C)C(C)=O` [Example 62, N-{5-[1-(1,3-Dimethyl-1H-pyrazol-4-yl)-3-methyl-2-oxo-2,3-dihydro-1H-imidazo[4,5-c]quinolin-8-yl]-2-methoxy-pyridin-3-yl}-N-methyl-acetamide], the IC50 on mTOR came out at 642 nM; at PI3K delta it was 16 nM; in series [1], 98 nM.
Turning to `COc1ncc(-c2ccc3ncc4c(c3c2)n(-c2cn(C)nc2Cl)c(=O)n4C)cc1CO` [Example 200, 1-(3-Chloro-1-methyl-1H-pyrazol-4-yl)-8-(5-hydroxymethyl-6-methoxy-pyridin-3-yl)-3-methyl-1,3-dihydro-imidazo[4,5-c]quinolin-2-one], the IC50 on mTOR was 3 nM; on PI3K delta, 10 nM; in series [1], under 0.5 nM.
As to `CNc1ncc(-c2ccc3ncc4c(c3c2)n(-c2c(C)nn(C)c2C)c(=O)n4C)cn1` [Example 80.2], the IC50 is 120 nM at mTOR, 25 nM at PI3K delta and 28 nM in series [1].
In the case of `Cc1nn(C)cc1-n1c(=O)n(C)c2cnc3ccc(-c4cnc(N)nc4)cc3c21` [Example 81.1, 8-(2-Amino-pyrimidin-5-yl)-1-(1,3-dimethyl-1H-pyrazol-4-yl)-3-methyl-1,3-dihydro-imidazo[4,5-c]quinolin-2-one], the IC50 at mTOR was found to be 4 nM; at PI3K delta, 39 nM; in series [1], 1.69 nM.
In the case of `CCNc1ncc(-c2ccc3ncc4c(c3c2)n(-c2cn(C)nc2C)c(=O)n4C)cc1Cl` [Example 147, 8-(5-Chloro-6-ethylamino-pyridin-3-yl)-1-(1,3-dimethyl-1H-pyrazol-4-yl)-3-methyl-1,3-dihydro-imidazo[4,5-c]quinolin-2-one], the IC50 was determined as 11 nM at mTOR, 8 nM at PI3K delta and 5.53 nM in series [1].
